Laboratory results taken from PubChem BioAssay AID1259407 (Chemical Carcinogenesis Research Information System (CCRIS), 2018).
The source made the active and inactive calls. The rule behind the calls is not given here.

Tested on: CCRIS mutagenicity, Ames/micronucleus/aberration tests
Assay: CCRIS mutagenicity studies
[1] = Test System: AMES SALMONELLA TYPHIMURIUM, Strain/Indicator: TA98, Metabolic Activation: NONE, Method: PREINCUBATION
[2] = Test System: AMES SALMONELLA TYPHIMURIUM, Strain/Indicator: TA100, Metabolic Activation: NONE, Method: PREINCUBATION
[3] = Test System: AMES SALMONELLA TYPHIMURIUM, Strain/Indicator: TA98, Metabolic Activation: NONE, Method: STANDARD PLATE
[4] = Test System: AMES SALMONELLA TYPHIMURIUM, Strain/Indicator: TA98, Metabolic Activation: RAT, LIVER, S-9, AROCLOR 1254, Method: STANDARD PLATE
[5] = Test System: AMES SALMONELLA TYPHIMURIUM, Strain/Indicator: TA100, Metabolic Activation: NONE, Method: STANDARD PLATE
[6] = Test System: AMES SALMONELLA TYPHIMURIUM, Strain/Indicator: TA1535, Metabolic Activation: NONE, Method: PREINCUBATION
[7] = Test System: AMES SALMONELLA TYPHIMURIUM, Strain/Indicator: TA1537, Metabolic Activation: NONE, Method: PREINCUBATION
[8] = Test System: AMES SALMONELLA TYPHIMURIUM, Strain/Indicator: TA1537, Metabolic Activation: NONE, Method: STANDARD PLATE

CC1(c2ccc(Oc3ccccc3)cc2)OC(=O)N(Nc2ccccc2)C1=O (configuration not stated)
mutagenic call (End Point: In vitro chromosomal aberrations, Test System: Human (male and female) lymphocytes, Metabolic Activation: None): inactive; negative
mutagenic call (End Point: In vitro chromosomal aberrations, Test System: Human (male and female) lymphocytes, Metabolic Activation: S-9): inactive; negative
mutagenic call (End Point: In vivo micronucleus, Test System: Bone marrow polychromatic erythrocytes, Species: Mouse, Strain/Sex: Crl:CD-1(ICR)BR/Male and female): inactive; negative
mutagenic call (End Point: UDS, Species: Rat, Strain/Sex: Sprague-Dawley Crl:CD BR/Male, Route: Oral): inactive; negative
mutagenic call (Test System: Ames Salmonella typhimurium, Strain/Indicator: TA97, Metabolic Activation: None, Method: Plate incorporation): inactive; negative
mutagenic call (Test System: Ames Salmonella typhimurium, Strain/Indicator: TA97, Metabolic Activation: Rat, Liver, S-9, Method: Plate incorporation): inactive; negative
mutagenic call (Test System: Ames Salmonella typhimurium, Strain/Indicator: TA98, Metabolic Activation: None, Method: Plate incorporation): inactive; negative
mutagenic call (Test System: Ames Salmonella typhimurium, Strain/Indicator: TA98, Metabolic Activation: Rat, Liver, S-9, Method: Plate incorporation): inactive; negative
mutagenic call (Test System: Ames Salmonella typhimurium, Strain/Indicator: TA100, Metabolic Activation: None, Method: Plate incorporation): inactive; negative
mutagenic call (Test System: Ames Salmonella typhimurium, Strain/Indicator: TA100, Metabolic Activation: Rat, Liver, S-9, Method: Plate incorporation): inactive; negative
mutagenic call (Test System: Ames Salmonella typhimurium, Strain/Indicator: TA1535, Metabolic Activation: None, Method: Plate incorporation): inactive; negative
mutagenic call (Test System: Ames Salmonella typhimurium, Strain/Indicator: TA1535, Metabolic Activation: Rat, Liver, S-9, Method: Plate incorporation): inactive; negative
mutagenic call (Test System: Chinese hamster ovary cells, Strain/Indicator: CHO-K1-BH4 (HGPRT), Metabolic Activation: None, Method: Suspension/plate?): inactive; negative
mutagenic call (Test System: Chinese hamster ovary cells, Strain/Indicator: CHO-K1-BH4 (HGPRT), Metabolic Activation: Rat, Liver, S-9, Method: Suspension/plate?): inactive; negative
mutagenic call (Test System: E. coli, Strain/Indicator: WP2 uvrA (pKM101), Metabolic Activation: None, Method: Plate incorporation): inactive; negative
mutagenic call (Test System: E. coli, Strain/Indicator: WP2 uvrA (pKM101), Metabolic Activation: Rat, Liver, S-9, Method: Plate incorporation): inactive; negative

O=C1C(c2[nH]c3ccc(S(=O)(=O)O)cc3c2O)=Nc2ccc(S(=O)(=O)O)cc21
mutagenic call [1]: inactive; negative
mutagenic call (Test System: AMES SALMONELLA TYPHIMURIUM, Strain/Indicator: TA98, Metabolic Activation: S-9, Method: PREINCUBATION): inactive; negative
mutagenic call [2]: inactive; negative
mutagenic call (Test System: AMES SALMONELLA TYPHIMURIUM, Strain/Indicator: TA100, Metabolic Activation: S-9, Method: PREINCUBATION): inactive; negative
mutagenic call (Test System: Mouse lymphoma, Strain/Indicator: L5178Y (tk+/tk-), Metabolic Activation: None, Method: Suspension/plate): inactive; negative
mutagenic call (Test System: Mouse lymphoma, Strain/Indicator: L5178Y (tk+/tk-), Metabolic Activation: Rat, liver, S-9, Aroclor 1254, Method: Suspension/plate): active; positive

O=C1C(c2[nH]c3ccccc3c2O)=Nc2ccccc21
mutagenic call [3]: inactive; negative
mutagenic call [4]: active; positive
mutagenic call [5]: inactive; negative
mutagenic call (Test System: AMES SALMONELLA TYPHIMURIUM, Strain/Indicator: TA100, Metabolic Activation: RAT, LIVER, S-9, AROCLOR 1254, Method: STANDARD PLATE): inactive; negative

CC(C)C(=O)OCC(C)(C)C(O)C(C)C (configuration not stated)
mutagenic call [1]: inactive; negative
mutagenic call (Test System: AMES SALMONELLA TYPHIMURIUM, Strain/Indicator: TA98, Metabolic Activation: RAT LIVER S-9, PHENOBARBITAL AND BETA-NAPHTHOFLAVONE, Method: PREINCUBATION): inactive; negative
mutagenic call [2]: inactive; negative
mutagenic call (Test System: AMES SALMONELLA TYPHIMURIUM, Strain/Indicator: TA100, Metabolic Activation: RAT LIVER S-9, PHENOBARBITAL AND BETA-NAPHTHOFLAVONE, Method: PREINCUBATION): inactive; negative
mutagenic call [6]: inactive; negative
mutagenic call (Test System: AMES SALMONELLA TYPHIMURIUM, Strain/Indicator: TA1535, Metabolic Activation: RAT LIVER S-9, PHENOBARBITAL AND BETA-NAPHTHOFLAVONE, Method: PREINCUBATION): inactive; negative
mutagenic call [7]: inactive; negative
mutagenic call (Test System: AMES SALMONELLA TYPHIMURIUM, Strain/Indicator: TA1537, Metabolic Activation: RAT LIVER S-9, PHENOBARBITAL AND BETA-NAPHTHOFLAVONE, Method: PREINCUBATION): inactive; negative
mutagenic call (Test System: E.COLI, Strain/Indicator: WP2UVRA/PKM101, Metabolic Activation: NONE, Method: PREINCUBATION): inactive; negative
mutagenic call (Test System: E.COLI, Strain/Indicator: WP2UVRA/PKM101, Metabolic Activation: RAT LIVER S-9, PHENOBARBITAL AND BETA-NAPHTHOFLAVONE, Method: PREINCUBATION): inactive; negative

Oc1ccc2c(ccc3c4ccccc4ccc23)c1
mutagenic call [4]: inactive; negative
mutagenic call [5]: inactive; negative

Cc1ccc(N=Nc2c(O)ccc3ccccc23)c([N+](=O)[O-])c1
mutagenic call (Test System: AMES SALMONELLA TYPHIMURIUM, Strain/Indicator: TA98, Metabolic Activation: HAMSTER, LIVER, S-9, AROCLOR 1254 (10%), Method: PREINCUBATION): active; positive
mutagenic call [1]: inactive; negative
mutagenic call (Test System: AMES SALMONELLA TYPHIMURIUM, Strain/Indicator: TA98, Metabolic Activation: RAT, LIVER, S-9, AROCLOR 1254 (10%), Method: PREINCUBATION): inactive; negative
mutagenic call (Test System: AMES SALMONELLA TYPHIMURIUM, Strain/Indicator: TA100, Metabolic Activation: HAMSTER, LIVER, S-9, AROCLOR 1254 (10%), Method: PREINCUBATION): active; positive
mutagenic call [2]: inactive; negative
mutagenic call (Test System: AMES SALMONELLA TYPHIMURIUM, Strain/Indicator: TA1535, Metabolic Activation: HAMSTER, LIVER, S-9, AROCLOR 1254 (10%), Method: PREINCUBATION): inactive; negative
mutagenic call [6]: inactive; negative
mutagenic call (Test System: AMES SALMONELLA TYPHIMURIUM, Strain/Indicator: TA1535, Metabolic Activation: RAT, LIVER, S-9, AROCLOR 1254 (10%), Method: PREINCUBATION): inactive; negative
mutagenic call (Test System: AMES SALMONELLA TYPHIMURIUM, Strain/Indicator: TA1537, Metabolic Activation: HAMSTER, LIVER, S-9, AROCLOR 1254 (10%), Method: PREINCUBATION): inactive; negative
mutagenic call [7]: inactive; negative
mutagenic call (Test System: AMES SALMONELLA TYPHIMURIUM, Strain/Indicator: TA1537, Metabolic Activation: RAT, LIVER, S-9, AROCLOR 1254 (10%), Method: PREINCUBATION): inactive; negative

CN(C)CCNC(=O)c1cccc2c1C(=O)c1ccccc1C2=O
mutagenic call [8]: active; positive

Oc1cccc2ccc3[nH]c4ccc5ccccc5c4c3c12
mutagenic call (Test System: AMES SALMONELLA TYPHIMURIUM, Strain/Indicator: TM677, Metabolic Activation: NONE, Method: PREINCUBATION): inactive; negative
mutagenic call (Test System: AMES SALMONELLA TYPHIMURIUM, Strain/Indicator: TM677, Metabolic Activation: RAT, LIVER, S-9, 3-METHYLCHOLANTHRENE (1%), Method: PREINCUBATION): inactive; negative
mutagenic call (Test System: AMES SALMONELLA TYPHIMURIUM, Strain/Indicator: TM677, Metabolic Activation: RAT, LIVER, S-9, 3-METHYLCHOLANTHRENE (10%), Method: PREINCUBATION): inactive; negative
mutagenic call (Test System: AMES SALMONELLA TYPHIMURIUM, Strain/Indicator: TM677, Metabolic Activation: RAT, LIVER, S-9, AROCLOR 1254 (10%), Method: PREINCUBATION): inactive; negative

Cc1occc(=O)c1[O-].Cc1occc(=O)c1[O-].Cc1occc(=O)c1[O-].[Al+3]
mutagenic call (Test System: AMES SALMONELLA TYPHIMURIUM, Strain/Indicator: TA92, Metabolic Activation: NONE, Method: STANDARD PLATE): inactive; negative
mutagenic call [3]: inactive; negative
mutagenic call [5]: inactive; negative
mutagenic call (Test System: AMES SALMONELLA TYPHIMURIUM, Strain/Indicator: TA104, Metabolic Activation: NONE, Method: STANDARD PLATE): inactive; negative

C1CC[CH]([Sn]([CH]2CCCCC2)[CH]2CCCCC2)CC1
mutagenic call (Test System: UDS HUMAN PERIPHERAL BLOOD LYMPHOCYTES, Strain/Indicator: THY INCORP, Metabolic Activation: NONE, Method: LIQUID SCINTILLATION): inactive; negative
mutagenic call (Test System: UDS HUMAN PERIPHERAL BLOOD LYMPHOCYTES, Strain/Indicator: THY INCORP, Metabolic Activation: RAT, LIVER, S-9, PHENOBARBITAL AND BETA-NAPHTHOFLAVONE, Method: LIQUID SCINTILLATION): inactive; negative

Cc1cccc2cccc([N+](=O)[O-])c12
mutagenic call [1]: active; positive

CS(=O)(=O)Nc1ccc(Nc2c3ccccc3nc3ccc(N=[N+]=[N-])cc23)cc1
mutagenic call [8]: active; positive
